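Growth conditions: 96-well plates. Treatment: test compound, 48 hours, 5 concentrations. Analysis: linear interpolation between bracketing concentrations; unreached endpoints set to highest concentration. GI50: concentration for 50% inhibition of growth.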 Activity calls are given as the source filed them. Cut-off read from the data, not from the text of the source: active = GI50 up to about 1.1 µM and inactive = higher.
Key:
Test in all cases: DTP human tumour cell line panel, 48 h
786-0 = test system: 786-0
A498 = test system: A498
EKVX = test system: EKVX
HCT-116 = test system: HCT-116
HOP-62 = test system: HOP-62
Hs-578T = test system: Hs-578T
IGROV-1 = test system: IGROV-1
KM12 = test system: KM12
MDA-MB-231 = test system: MDA-MB-231
MDA-MB-435 = test system: MDA-MB-435
MOLT-4 = test system: MOLT-4
NCI-H226 = test system: NCI-H226
NCI-H23 = test system: NCI-H23
NCI-H460 = test system: NCI-H460
OVCAR-3 = test system: OVCAR-3
SF-295 = test system: SF-295
SK-MEL-28 = test system: SK-MEL-28
SK-MEL-5 = test system: SK-MEL-5
T47D = test system: T47D
UACC-257 = test system: UACC-257

Measured: GI50

O=[N+]([O-])c1cc(F)ccc1Sc1ccccc1
inactive: 786-0 > 10 µM | A498 > 10 µM | EKVX > 10 µM | HCT-116 > 10 µM | HOP-62 > 10 µM | Hs-578T > 10 µM | IGROV-1 > 10 µM | KM12 > 10 µM | MDA-MB-231 > 10 µM | MDA-MB-435 > 10 µM | MOLT-4 > 10 µM | NCI-H226 > 10 µM | NCI-H23 > 10 µM | NCI-H460 > 10 µM | OVCAR-3 > 10 µM | SF-295 > 10 µM | SK-MEL-28 > 10 µM | SK-MEL-5 > 10 µM | T47D > 10 µM | UACC-257 > 10 µM

O=c1onc2n1-c1ccc(Cl)cc1C(=S)N1CSCC21 (stereo not given)
inactive: 786-0 23.1 µM | A498 23.1 µM | EKVX 29.6 µM | HCT-116 13.7 µM | HOP-62 63.1 µM | Hs-578T 22.2 µM | IGROV-1 26.5 µM | KM12 29.4 µM | MDA-MB-231 19.5 µM | MDA-MB-435 9.46 µM | MOLT-4 30.1 µM | NCI-H226 28.1 µM | NCI-H460 20.9 µM | OVCAR-3 38.8 µM | SF-295 17.5 µM | SK-MEL-28 52.5 µM | SK-MEL-5 19.7 µM | T47D 35.7 µM | UACC-257 > 100 µM

FC(F)(F)c1ccc2c(-c3cc[nH]c3)ccnc2c1
inactive: 786-0 17.7 µM | A498 23.8 µM | EKVX 33 µM | HCT-116 32.5 µM | HOP-62 35.5 µM | Hs-578T 23.9 µM | IGROV-1 39.5 µM | KM12 31.8 µM | MDA-MB-231 40.1 µM | MDA-MB-435 35 µM | MOLT-4 19.4 µM | NCI-H226 36.9 µM | NCI-H23 28 µM | NCI-H460 33.7 µM | OVCAR-3 27.4 µM | SF-295 30 µM | SK-MEL-28 35.6 µM | SK-MEL-5 20.7 µM | T47D > 100 µM | UACC-257 31.4 µM

O=C1OC(c2ccccc2)=N/C1=C\c1ccc(N(CCCl)CCCl)cc1
inactive: 786-0 > 94 µM | A498 > 100 µM | EKVX > 100 µM | HCT-116 > 100 µM | HOP-62 > 89.5 µM | Hs-578T > 100 µM | IGROV-1 > 100 µM | KM12 > 92.3 µM | MDA-MB-231 > 100 µM | MDA-MB-435 > 100 µM | MOLT-4 44.9 µM | NCI-H226 > 100 µM | NCI-H23 > 57.8 µM | NCI-H460 > 77.4 µM | OVCAR-3 > 76.2 µM | SF-295 > 100 µM | SK-MEL-28 > 100 µM | SK-MEL-5 > 100 µM | T47D 14.5 µM | UACC-257 > 100 µM

CC1(CCCC2(C)CCNC2=O)OCCO1 (stereo not given)
inactive: 786-0 > 10 µM | A498 > 10 µM | EKVX > 10 µM | HCT-116 > 10 µM | HOP-62 > 10 µM | Hs-578T > 10 µM | IGROV-1 > 10 µM | KM12 > 10 µM | MDA-MB-231 > 10 µM | MDA-MB-435 > 10 µM | MOLT-4 > 10 µM | NCI-H226 > 10 µM | NCI-H23 > 10 µM | NCI-H460 > 10 µM | OVCAR-3 > 10 µM | SF-295 > 10 µM | SK-MEL-28 > 10 µM | SK-MEL-5 > 10 µM | T47D > 10 µM | UACC-257 > 10 µM

NC1CCCCC1.O=C(CP(=O)(O)O)NC(CC(=O)OCc1ccccc1)C(=O)OCc1ccccc1 (stereo not given)
inactive: 786-0 > 100 µM | A498 > 100 µM | EKVX > 100 µM | HCT-116 > 100 µM | HOP-62 > 100 µM | Hs-578T > 100 µM | IGROV-1 > 100 µM | MDA-MB-231 > 100 µM | MDA-MB-435 > 100 µM | MOLT-4 > 100 µM | NCI-H226 > 100 µM | NCI-H23 > 100 µM | NCI-H460 > 100 µM | OVCAR-3 > 100 µM | SF-295 > 100 µM | SK-MEL-28 > 100 µM | SK-MEL-5 > 100 µM | T47D > 100 µM | UACC-257 > 100 µM

CCCCCCCCCCCCOc1ccc(/C=C/C2=[N+](CCCl)CCO2)cc1
inactive: 786-0 19.2 µM | A498 > 100 µM | EKVX 97.1 µM | HCT-116 15.8 µM | HOP-62 > 100 µM | Hs-578T 56.6 µM | IGROV-1 25.4 µM | KM12 38 µM | MDA-MB-231 25.1 µM | MDA-MB-435 94.2 µM | MOLT-4 25 µM | NCI-H226 > 100 µM | NCI-H460 43.4 µM | OVCAR-3 19.4 µM | SF-295 45.8 µM | SK-MEL-28 > 100 µM | SK-MEL-5 67 µM | T47D 76.4 µM | UACC-257 63.2 µM

O=C(c1ccc(Cl)cc1)N(Cc1cccnc1)C(=S)N(Cc1cccnc1)C(=O)c1ccc(Cl)cc1
inactive: 786-0 21.1 µM | A498 30.5 µM | EKVX 50.8 µM | HCT-116 27.1 µM | HOP-62 50.7 µM | Hs-578T 48.4 µM | KM12 35.4 µM | MDA-MB-231 26.5 µM | MDA-MB-435 40.2 µM | MOLT-4 16.1 µM | NCI-H226 43.5 µM | NCI-H23 36.1 µM | NCI-H460 44.2 µM | OVCAR-3 34 µM | SF-295 43.3 µM | SK-MEL-28 37.8 µM | SK-MEL-5 27.5 µM | T47D 57.4 µM | UACC-257 33.6 µM

Cn1c2c(c3ccccc31)CCN1OCC=C[C@@H](C(=O)O)[C@@H]21
inactive: 786-0 > 100 µM | A498 > 100 µM | EKVX > 100 µM | HCT-116 > 100 µM | HOP-62 > 100 µM | Hs-578T 31 µM | IGROV-1 > 100 µM | KM12 > 100 µM | MDA-MB-231 > 100 µM | MDA-MB-435 > 100 µM | NCI-H226 > 100 µM | NCI-H460 > 100 µM | OVCAR-3 > 100 µM | SK-MEL-28 > 100 µM | SK-MEL-5 > 100 µM | T47D > 100 µM | UACC-257 > 100 µM

COC(=O)/C=C(\S/C=C(/c1ccccc1)N1CCn2c(C(=O)c3ccccc3)c(C(=O)OC)c(C(=O)OC)c21)C(=O)OC
inactive: 786-0 1.66 µM | A498 > 10 µM | EKVX > 10 µM | HCT-116 2.34 µM | HOP-62 2.69 µM | Hs-578T > 10 µM | IGROV-1 > 10 µM | KM12 > 10 µM | MDA-MB-231 2.69 µM | MDA-MB-435 3.97 µM | MOLT-4 1.79 µM | NCI-H226 > 10 µM | NCI-H23 3.3 µM | NCI-H460 > 10 µM | OVCAR-3 1.51 µM | SF-295 > 10 µM | SK-MEL-5 > 10 µM | T47D 2.92 µM | UACC-257 3.07 µM

Oc1ccc2ccccc2c1CCc1c(O)ccc2ccccc12
inactive: 786-0 16.2 µM | A498 18.5 µM | EKVX 13.4 µM | HCT-116 12.6 µM | HOP-62 13.5 µM | Hs-578T 16.2 µM | KM12 11.8 µM | MDA-MB-231 14.1 µM | MDA-MB-435 12.8 µM | NCI-H226 13.7 µM | NCI-H23 11.8 µM | NCI-H460 10.4 µM | OVCAR-3 4.42 µM | SF-295 11.7 µM | SK-MEL-28 10.6 µM | SK-MEL-5 12.6 µM | T47D 2.44 µM | UACC-257 13.9 µM

— ChEMBL document CHEMBL1201862, “PubChem BioAssay data set” (2004)
